Assay results as given in PubChem BioAssay (NCI).
“And” between values parts separate entries of the source, which are not always exact repeats. Identical values can stand only once.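 96-well plates; 48 h exposure; 5 concentrations. Endpoints by linear interpolation between flanking doses. Not reached: highest tested concentration assigned. Abbreviation: GI50, concentration required for 50% inhibition of growth. TGI denotes the concentration required for complete inhibition of growth.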

The compounds below were run on LXFL 529 NSCLC (assay: inhibition of tumour cell growth, NCI panel, 48 h).

SMILES	TGI	GI50
C[C@@]1(O)CC[C@]2(C)C3CCCC3[C@H]12 (stereo partly specified)	> 100 µM	
O=C(Nc1nc(=S)[nH][nH]1)C(=O)C(C(=O)c1ccc2ccccc2c1)C1OC(=O)c2ccccc21 (stereo unspecified)	52.7 µM	
CCOC(=O)C1=C(C)N(NC(=O)Nc2ccccc2)C2(N)N(NC(=O)Nc3ccccc3)C(C)=C(C(=O)OCC)C12C(=O)OCC (stereo unspecified)	> 100 µM	
O=C(O)CSc1n[nH]c(-c2ccccc2O)n1	> 100 µM	
CCOc1ccc(NC2=CC(=O)C(=O)c3ccccc32)cc1	11.2 µM	
Cc1nc(-c2nc(C)c(C(=O)NNC(=O)C[n+]3ccccc3)s2)sc1C(=O)NNC(=O)C[n+]1ccccc1	> 100 µM	
CN(C)C=Nc1nc(=O)n(C2CCC(CO)O2)cc1F (stereo unspecified)	> 100 µM	
O=C1c2ccccc2C(=O)c2c(/C=C\N3CCCCC3)ccnc21	15 µM	
O=c1[nH]c(-c2ccccc2)nc2cc(Cl)ccc12	> 100 µM	
CCCOc1nc(N)c2cnn(C3CCCCO3)c2n1 (stereo unspecified)	> 100 µM	
C/C(CN1C(=O)c2ccccc2C1=O)=N\NS(=O)(=O)c1ccc(Cl)cc1	> 100 µM	
COc1ccc(/C=C/COC(C)=O)cc1OC	> 100 µM	
[O-][Cl+3]([O-])([O-])[O-].[O]=[Ru]=[O].c1ccc(-c2ccccn2)nc1.c1ccc(-c2ccccn2)nc1	> 100 µM	41.3 µM
COc1cc2c(cc1OC)C(Cl)C(c1ccc(F)cc1)=C2Cl (stereo unspecified)	24 µM	
CN(C)CC1CCC/C1=N/OC(=O)c1ccccc1 (stereo unspecified)	> 100 µM	
CCOC(=O)C1Sc2ccccc2N=C1C (stereo unspecified)	> 100 µM	
O=C(NC1C=CCC2C(=O)N(c3ccccc3)C(=O)C12)OCc1ccccc1 (stereo unspecified)	> 100 µM	
CCC(C)SC1SCC2C(=O)N(C)C3(CC3C)C(=O)OCC(NC(=O)c3nc4ccccc4cc3O)C(=O)NC(C)C(=O)N(C)C1C(=O)N(C)C1(CC1C)C(=O)OCC(NC(=O)c1nc3ccccc3cc1O)C(=O)NC(C)C(=O)N2C (stereo unspecified)	0.791 µM	
Cc1[cH-]c(=O)n(-c2ccccc2)n1.[Au+].[Au].c1ccc([PH+](c2ccccc2)c2ccccc2)cc1.c1ccc([PH+](c2ccccc2)c2ccccc2)cc1	2.38 µM and 3.55 µM	0.488 µM and 1.09 µM
CC1(C)CC(c2c[nH]c3ccccc23)=CC2=Nc3ccccc3C21O (stereo unspecified)	> 100 µM	
CN1C(=O)C(=O)N2c3ccc(Cl)cc3C3(c4ccccc4)N=CC12O3 (stereo unspecified)	10.2 µM	
N#CCCC[Si]12OCCN(CCO1)CCO2	> 100 µM	
O=C(/C=C/c1c(O)ccc2ccccc12)c1ccc([N+](=O)[O-])cc1	30.4 µM	

What follows are compounds tested on HOP-18 NSCLC (assay: inhibition of tumour cell growth, NCI panel, 48 h).

SMILES	TGI [µM]	GI50
C[C@@]1(O)CC[C@]2(C)C3CCCC3[C@H]12 (stereo partly specified)	> 100	
O=C(Nc1nc(=S)[nH][nH]1)C(=O)C(C(=O)c1ccc2ccccc2c1)C1OC(=O)c2ccccc21 (stereo unspecified)	40.2	
CCOC(=O)C1=C(C)N(NC(=O)Nc2ccccc2)C2(N)N(NC(=O)Nc3ccccc3)C(C)=C(C(=O)OCC)C12C(=O)OCC (stereo unspecified)	54.6	
CCOc1ccc(NC2=CC(=O)C(=O)c3ccccc32)cc1	4.61	
CN(C)C=Nc1nc(=O)n(C2CCC(CO)O2)cc1F (stereo unspecified)	> 100	
O=C1c2ccccc2C(=O)c2c(/C=C\N3CCCCC3)ccnc21	2.96	
Cc1ccc(S(=O)(=O)N2CCC2c2ccccc2)cc1 (stereo unspecified)	> 100	
CCCOc1nc(N)c2cnn(C3CCCCO3)c2n1 (stereo unspecified)	> 100	
C/C(CN1C(=O)c2ccccc2C1=O)=N\NS(=O)(=O)c1ccc(Cl)cc1	> 100	
[O-][Cl+3]([O-])([O-])[O-].[O]=[Ru]=[O].c1ccc(-c2ccccn2)nc1.c1ccc(-c2ccccn2)nc1	> 100	> 100 µM
COc1cc2c(cc1OC)C(Cl)C(c1ccc(F)cc1)=C2Cl (stereo unspecified)	30.5	
O=C1C(C(Nc2ccccc2)c2ccccc2)=C([O-])c2ccccc21.O=C1C(C(Nc2ccccc2)c2ccccc2)=C([O-])c2ccccc21.[Cu+2] (stereo unspecified)	> 100	> 100 µM
CN(C)CC1CCC/C1=N/OC(=O)c1ccccc1 (stereo unspecified)	> 100	
CCOC(=O)C1Sc2ccccc2N=C1C (stereo unspecified)	> 100	
O=C(NC1C=CCC2C(=O)N(c3ccccc3)C(=O)C12)OCc1ccccc1 (stereo unspecified)	> 100	
CCC(C)SC1SCC2C(=O)N(C)C3(CC3C)C(=O)OCC(NC(=O)c3nc4ccccc4cc3O)C(=O)NC(C)C(=O)N(C)C1C(=O)N(C)C1(CC1C)C(=O)OCC(NC(=O)c1nc3ccccc3cc1O)C(=O)NC(C)C(=O)N2C (stereo unspecified)	24.1	
Cc1[cH-]c(=O)n(-c2ccccc2)n1.[Au+].[Au].c1ccc([PH+](c2ccccc2)c2ccccc2)cc1.c1ccc([PH+](c2ccccc2)c2ccccc2)cc1	27	4.06 µM and 10.3 µM
CN1C(=O)C(=O)N2c3ccc(Cl)cc3C3(c4ccccc4)N=CC12O3 (stereo unspecified)	34.6	
